Results published in ChEMBL document CHEMBL1201862, “PubChem BioAssay data set” (2004).
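96-well plates; 48 h exposure; 5 concentrations. Endpoints by linear interpolation between flanking doses. Not reached: highest tested concentration assigned. At the GI50, growth is halved.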 The source made the active and inactive calls. No stated cut-off is given here; in the data, active = GI50 up to about 1.1 µM and inactive = higher.

Key:
Experiment in all cases: growth of human tumour cells (NCI), 48 h
U-251 = test system: U-251
Hs-578T = test system: Hs-578T
OVCAR-5 = test system: OVCAR-5
A549 = test system: A549
HOP-92 = test system: HOP-92
NCI-H226 = test system: NCI-H226
MDA-MB-435 = test system: MDA-MB-435
CCRF-CEM = test system: CCRF-CEM
IGROV-1 = test system: IGROV-1
HCT-15 = test system: HCT-15
OVCAR-3 = test system: OVCAR-3
KM12 = test system: KM12
CAKI-1 = test system: CAKI-1
SNB-19 = test system: SNB-19
SW-620 = test system: SW-620
OVCAR-8 = test system: OVCAR-8
HT-29 = test system: HT-29
MDA-MB-231 = test system: MDA-MB-231
SK-MEL-5 = test system: SK-MEL-5
NCI-H522 = test system: NCI-H522
UO-31 = test system: UO-31
NCI/ADR-RES = test system: NCI/ADR-RES
COLO 205 = test system: COLO 205
SN12C = test system: SN12C
BT-549 = test system: BT-549
OVCAR-4 = test system: OVCAR-4
NCI-H23 = test system: NCI-H23
SNB-75 = test system: SNB-75
NCI-H460 = test system: NCI-H460
HCT-116 = test system: HCT-116
K562 = test system: K562
ACHN = test system: ACHN
DU-145 = test system: DU-145
UACC-257 = test system: UACC-257
MOLT-4 = test system: MOLT-4
RXF 393 = test system: RXF 393
T47D = test system: T47D
M14 = test system: M14
HOP-62 = test system: HOP-62
786-0 = test system: 786-0
MCF7 = test system: MCF7
SF-295 = test system: SF-295
SK-MEL-28 = test system: SK-MEL-28
TK-10 = test system: TK-10
MDA-N = test system: MDA-N
SK-OV-3 = test system: SK-OV-3
Malme-3M = test system: Malme-3M
A498 = test system: A498
SF-268 = test system: SF-268
SK-MEL-2 = test system: SK-MEL-2
EKVX = test system: EKVX
HL-60 = test system: HL-60
PC-3 = test system: PC-3
UACC-62 = test system: UACC-62
LOX IMVI = test system: LOX IMVI
HCC 2998 = test system: HCC 2998
SF-539 = test system: SF-539
SR = test system: SR
RPMI-8226 = test system: RPMI-8226

With `Clc1ccc2c(c1)CC1C[N+]3=C(CCCC3)C1=C2` (stereo not drawn) the GI50 (U-251) was 34 µM (inactive), the GI50 (Hs-578T) was > 100 µM (inactive) and the GI50 (OVCAR-5) was > 100 µM (inactive). The GI50 (A549) was 39.6 µM (inactive), the GI50 (HOP-92) was 63.5 µM (inactive) and the GI50 (NCI-H226) was 76.6 µM (inactive). The GI50 (MDA-MB-435) was 54.2 µM (inactive), the GI50 (CCRF-CEM) was 83 µM (inactive) and the GI50 (IGROV-1) was > 100 µM (inactive). The GI50 (HCT-15) was > 100 µM, the GI50 (OVCAR-3) was 34.4 µM (inactive) and the GI50 (KM12) was 57.8 µM (inactive). For the same compound, the GI50 (CAKI-1) was > 100 µM (inactive), the GI50 (SNB-19) was 48.3 µM (inactive) and the GI50 (SW-620) was 47.9 µM (inactive). For the same compound, the GI50 (OVCAR-8) was 60.7 µM (inactive), the GI50 (HT-29) was 36.6 µM (inactive) and the GI50 (MDA-MB-231) was 44.8 µM (inactive). The GI50 (SK-MEL-5) was 50.4 µM (inactive), the GI50 (NCI-H522) was 47.4 µM (inactive) and the GI50 (UO-31) was > 100 µM (inactive). The GI50 (NCI/ADR-RES) was > 100 µM (inactive), the GI50 (COLO 205) was 58.1 µM (inactive) and the GI50 (SN12C) was > 100 µM (inactive). The GI50 (BT-549) was 55.5 µM (inactive), the GI50 (OVCAR-4) was 37.6 µM (inactive) and the GI50 (NCI-H23) was 69 µM (inactive). For the same compound, the GI50 (SNB-75) was 52 µM (inactive), the GI50 (NCI-H460) was 40.1 µM (inactive) and the GI50 (HCT-116) was > 100 µM (inactive). The GI50 (K562) was 75.3 µM (inactive), the GI50 (ACHN) was > 100 µM (inactive) and the GI50 (DU-145) was > 100 µM (inactive). For the same compound, the GI50 (UACC-257) was 43.9 µM (inactive), the GI50 (MOLT-4) was > 100 µM (inactive) and the GI50 (RXF 393) was > 100 µM (inactive). For the same compound, the GI50 (T47D) was 51.3 µM (inactive), the GI50 (M14) was 53.8 µM (inactive) and the GI50 (HOP-62) was 89.9 µM (inactive). The GI50 (786-0) was > 100 µM (inactive), the GI50 (MCF7) was 61.1 µM (inactive) and the GI50 (SF-295) was 28 µM (inactive). The GI50 (SK-MEL-28) was > 100 µM (inactive), the GI50 (TK-10) was 72.8 µM (inactive) and the GI50 (MDA-N) was > 100 µM (inactive). The GI50 (SK-OV-3) was > 100 µM (inactive), the GI50 (Malme-3M) was 36.6 µM (inactive) and the GI50 (A498) was 72.1 µM (inactive). For the same compound, the GI50 (SF-268) was 90.4 µM (inactive), the GI50 (SK-MEL-2) was > 100 µM (inactive) and the GI50 (EKVX) was 78.7 µM (inactive). The GI50 (HL-60) was 40 µM (inactive), the GI50 (PC-3) was 60.5 µM (inactive) and the GI50 (UACC-62) was > 100 µM (inactive). For the same compound, the GI50 (LOX IMVI) was > 100 µM (inactive).
In the case of `Cc1ccc(NC(=O)/C(=N\NC(N)=O)c2c(O)c3ccccc3[nH]c2=O)cc1`, the GI50 (HCC 2998) is reported as > 100 µM (inactive), the GI50 (U-251) is reported as > 100 µM (inactive) and the GI50 (Hs-578T) is reported as > 100 µM (inactive). For the same compound, the GI50 (OVCAR-5) was > 100 µM (inactive), the GI50 (A549) was > 100 µM (inactive) and the GI50 (HOP-92) was > 100 µM (inactive). For the same compound, the GI50 (NCI-H226) was > 100 µM (inactive), the GI50 (MDA-MB-435) was > 100 µM (inactive) and the GI50 (CCRF-CEM) was > 100 µM (inactive). For the same compound, the GI50 (HCT-15) was > 100 µM, the GI50 (OVCAR-3) was > 100 µM (inactive) and the GI50 (KM12) was > 100 µM (inactive). The GI50 (CAKI-1) was > 100 µM (inactive), the GI50 (SNB-19) was > 100 µM (inactive) and the GI50 (SW-620) was > 100 µM (inactive). The GI50 (OVCAR-8) was > 100 µM (inactive), the GI50 (HT-29) was > 100 µM (inactive) and the GI50 (MDA-MB-231) was > 100 µM (inactive). For the same compound, the GI50 (SK-MEL-5) was > 100 µM (inactive), the GI50 (UO-31) was > 100 µM (inactive) and the GI50 (SF-539) was > 100 µM (inactive). For the same compound, the GI50 (NCI/ADR-RES) was > 100 µM (inactive), the GI50 (COLO 205) was > 100 µM (inactive) and the GI50 (SN12C) was > 100 µM (inactive). The GI50 (BT-549) was > 100 µM (inactive), the GI50 (OVCAR-4) was > 100 µM (inactive) and the GI50 (NCI-H23) was > 100 µM (inactive). The GI50 (SNB-75) was 99.8 µM (inactive), the GI50 (NCI-H460) was > 100 µM (inactive) and the GI50 (HCT-116) was > 100 µM (inactive). For the same compound, the GI50 (K562) was > 100 µM (inactive), the GI50 (ACHN) was > 100 µM (inactive) and the GI50 (DU-145) was > 100 µM (inactive). The GI50 (UACC-257) was > 100 µM (inactive), the GI50 (MOLT-4) was > 100 µM (inactive) and the GI50 (RXF 393) was > 100 µM (inactive). The GI50 (T47D) was > 100 µM (inactive), the GI50 (M14) was > 100 µM (inactive) and the GI50 (786-0) was > 100 µM (inactive). The GI50 (MCF7) was > 100 µM (inactive), the GI50 (SR) was > 100 µM (inactive) and the GI50 (SF-295) was > 100 µM (inactive). For the same compound, the GI50 (SK-MEL-28) was > 100 µM (inactive), the GI50 (MDA-N) was > 100 µM (inactive) and the GI50 (SK-OV-3) was > 100 µM (inactive). For the same compound, the GI50 (A498) was > 100 µM (inactive), the GI50 (SF-268) was > 100 µM (inactive) and the GI50 (SK-MEL-2) was > 100 µM (inactive). The GI50 (HL-60) was > 100 µM (inactive), the GI50 (RPMI-8226) was > 100 µM (inactive) and the GI50 (PC-3) was > 100 µM (inactive). For the same compound, the GI50 (UACC-62) was > 100 µM (inactive) and the GI50 (LOX IMVI) was > 100 µM (inactive).
